# Results: US7598245B2 (Vertex Pharmaceuticals Incorporated, priority 2003, dated 2009)
# Assays:
# Type in all cases: biochemical
# human Src kinase = biological target: T1, human Src kinase (Homo sapiens, UniProt P12931); test: Src inhibition assay B: spectrophotometric (uv-vis) coupled enzyme assay; details: 100 μM ATP
# T1 construct: 25 nM of recombinant human Src kinase
# Method: The compounds are evaluated as inhibitors of human Src kinase using either a radioactivity-based assay or spectrophotometric assay.
# Src Inhibition Assay B: Spectrophotometric Assay
# The ADP produced from ATP by the human recombinant Src kinase-catalyzed phosphorylation of poly Glu-Tyr substrate is quantified using a coupled enzyme assay [Fox et al. Protein Sci. 1998, 7, 2249]. In this assay one molecule of NADH is oxidised to NAD for every molecule of ADP produced in the kinase reaction. The disappearance of NADH is conveniently followed at 340 nm.
# The following are the final concentrations of the assay components: 0.025 M HEPES (pH 7.6), 10 mM MgCl2, 2 mM DTT, 0.25 mg/ml poly Glu-Tyr, and 25 nM of recombinant human Src kinase. Final concentrations of the components of the coupled enzyme system are 2.5 mM phosphoenolpyruvate, 200 μM NADH, 30 μg/ml pyruvate kinase and 10 μg/ml lactate dehydrogenase.
# In a typical assay, all the reaction components with the exception of ATP are pre-mixed and aliquoted into assay plate wells. Inhibitors dissolved in DMSO are added to the wells to give a final DMSO concentration of 2.5%. The assay plate is incubated at 30° C. for 10 min before initiating the reaction with 100 μM ATP. The absorbance change at 340 nm with time, the rate of the reaction, is monitored on a molecular devices plate reader. The data of rate as a function of the inhibitor concentration is fitted to competitive inhibition kinetics model to get the Ki for the compound.
# JAK-3 = biological target: T2, JAK-3 (Homo sapiens, UniProt P52333); test: JAK3 inhibition assay (ELISA, Poly (Glu, Ala, Tyr) coated plates); details: 2 μM ATP
# T2 sequence (P52333 1-1124): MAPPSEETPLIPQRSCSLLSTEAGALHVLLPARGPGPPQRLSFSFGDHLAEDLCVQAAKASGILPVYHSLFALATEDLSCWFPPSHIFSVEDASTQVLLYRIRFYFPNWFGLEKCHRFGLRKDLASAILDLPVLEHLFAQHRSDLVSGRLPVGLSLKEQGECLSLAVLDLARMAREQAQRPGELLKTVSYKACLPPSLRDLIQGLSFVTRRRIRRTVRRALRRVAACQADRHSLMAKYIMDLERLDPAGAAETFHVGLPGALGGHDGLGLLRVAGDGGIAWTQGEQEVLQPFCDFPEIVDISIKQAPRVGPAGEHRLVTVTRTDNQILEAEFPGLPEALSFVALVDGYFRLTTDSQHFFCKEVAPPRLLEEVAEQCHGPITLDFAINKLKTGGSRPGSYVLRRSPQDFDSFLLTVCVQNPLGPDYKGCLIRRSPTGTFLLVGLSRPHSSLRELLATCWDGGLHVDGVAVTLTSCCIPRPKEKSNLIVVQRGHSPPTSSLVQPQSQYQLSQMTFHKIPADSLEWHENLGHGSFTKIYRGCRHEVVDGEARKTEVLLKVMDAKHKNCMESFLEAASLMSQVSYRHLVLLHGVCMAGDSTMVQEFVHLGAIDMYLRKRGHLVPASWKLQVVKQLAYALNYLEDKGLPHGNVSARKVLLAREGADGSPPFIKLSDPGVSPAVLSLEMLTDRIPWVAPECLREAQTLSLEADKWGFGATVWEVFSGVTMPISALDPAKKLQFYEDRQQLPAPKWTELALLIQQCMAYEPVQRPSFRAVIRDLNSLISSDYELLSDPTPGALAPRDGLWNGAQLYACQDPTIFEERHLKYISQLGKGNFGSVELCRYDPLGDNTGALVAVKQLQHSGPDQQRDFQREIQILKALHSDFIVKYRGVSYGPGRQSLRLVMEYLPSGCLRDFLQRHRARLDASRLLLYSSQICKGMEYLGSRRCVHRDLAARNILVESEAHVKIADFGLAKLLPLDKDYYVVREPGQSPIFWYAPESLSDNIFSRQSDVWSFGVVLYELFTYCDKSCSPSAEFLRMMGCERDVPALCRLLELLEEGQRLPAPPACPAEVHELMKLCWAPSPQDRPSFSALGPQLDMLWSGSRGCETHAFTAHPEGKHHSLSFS
# Method: Compound inhibition of JAK was assayed by the method described by G. R. Brown, et al, Bioorg. Med. Chem. Lett. 2000, vol. 10, pp 575-579 in the following manner. Into Maxisorb plates, previously coated at 4° C. with Poly (Glu, Ala, Tyr) 6:3:1 then washed with phosphate buffered saline 0.05% and Tween-(PBST), was added 2 μM ATP, 5 mM MgCl2, and a solution of compound in DMSO. The reaction was started with JAK enzyme and the plates incubated for 60 minutes at 30° C. The plates were then washed with PBST, 100 μL HRP-Conjugated 4G10 antibody was added, and the plate incubated for 90 minutes at 30° C. The plate was again washed with PBST, 100 μL TMB solution is added, and the plates were incubated for another 30 minutes at 30° C. Sulfuric acid (100 μL of 1M) was added to stop the reaction and the plate is read at 450 nm to obtain the optical densities for analysis to determine Ki values.
# KDR = KDR (Homo sapiens, UniProt P35968); test: Inhibition of KDR, coupled enzyme assay; details: 300 μM ATP, 37° C.
# Method: Compounds were screened for their ability to inhibit KDR using a standard coupled enzyme assay (Fox et al., Protein Sci., (1998) 7, 2249). Assays were carried out in a mixture of 200 mM HEPES 7.5, 10 mM MgCl2, 25 mM NaCl, 1 mM DTT and 1.5% DMSO. Final substrate concentrations in the assay were 300 μM ATP (Sigma Chemicals) and 10 μM poly E4Y (Sigma). Assays were carried out at 37° C. and 30 nM KDR. Final concentrations of the components of the coupled enzyme system were 2.5 mM phosphoenolpyruvate, 200 μM NADH, 30 μg/ML pyruvate kinase and 10 μg/ml lactate dehydrogenase.
# An assay stock buffer solution was prepared containing all of the reagents listed above, with the exception of ATP and the test compound of interest. 177 μl of the stock solution was placed in a 96 well plate followed by addition of 3 μl of 2 mM DMSO stock containing the test compound (final compound concentration 30 μM). The plate was preincubated for about 10 minutes at 37° C. and the reaction initiated by addition of 20 μl of ATP (final concentration 300 μM). Rates of reaction were obtained using a Molecular Devices plate reader (Sunnyvale, Calif.) over a 5 minute read time at 37° C.
# KDR, sequence (P35968 20-1356): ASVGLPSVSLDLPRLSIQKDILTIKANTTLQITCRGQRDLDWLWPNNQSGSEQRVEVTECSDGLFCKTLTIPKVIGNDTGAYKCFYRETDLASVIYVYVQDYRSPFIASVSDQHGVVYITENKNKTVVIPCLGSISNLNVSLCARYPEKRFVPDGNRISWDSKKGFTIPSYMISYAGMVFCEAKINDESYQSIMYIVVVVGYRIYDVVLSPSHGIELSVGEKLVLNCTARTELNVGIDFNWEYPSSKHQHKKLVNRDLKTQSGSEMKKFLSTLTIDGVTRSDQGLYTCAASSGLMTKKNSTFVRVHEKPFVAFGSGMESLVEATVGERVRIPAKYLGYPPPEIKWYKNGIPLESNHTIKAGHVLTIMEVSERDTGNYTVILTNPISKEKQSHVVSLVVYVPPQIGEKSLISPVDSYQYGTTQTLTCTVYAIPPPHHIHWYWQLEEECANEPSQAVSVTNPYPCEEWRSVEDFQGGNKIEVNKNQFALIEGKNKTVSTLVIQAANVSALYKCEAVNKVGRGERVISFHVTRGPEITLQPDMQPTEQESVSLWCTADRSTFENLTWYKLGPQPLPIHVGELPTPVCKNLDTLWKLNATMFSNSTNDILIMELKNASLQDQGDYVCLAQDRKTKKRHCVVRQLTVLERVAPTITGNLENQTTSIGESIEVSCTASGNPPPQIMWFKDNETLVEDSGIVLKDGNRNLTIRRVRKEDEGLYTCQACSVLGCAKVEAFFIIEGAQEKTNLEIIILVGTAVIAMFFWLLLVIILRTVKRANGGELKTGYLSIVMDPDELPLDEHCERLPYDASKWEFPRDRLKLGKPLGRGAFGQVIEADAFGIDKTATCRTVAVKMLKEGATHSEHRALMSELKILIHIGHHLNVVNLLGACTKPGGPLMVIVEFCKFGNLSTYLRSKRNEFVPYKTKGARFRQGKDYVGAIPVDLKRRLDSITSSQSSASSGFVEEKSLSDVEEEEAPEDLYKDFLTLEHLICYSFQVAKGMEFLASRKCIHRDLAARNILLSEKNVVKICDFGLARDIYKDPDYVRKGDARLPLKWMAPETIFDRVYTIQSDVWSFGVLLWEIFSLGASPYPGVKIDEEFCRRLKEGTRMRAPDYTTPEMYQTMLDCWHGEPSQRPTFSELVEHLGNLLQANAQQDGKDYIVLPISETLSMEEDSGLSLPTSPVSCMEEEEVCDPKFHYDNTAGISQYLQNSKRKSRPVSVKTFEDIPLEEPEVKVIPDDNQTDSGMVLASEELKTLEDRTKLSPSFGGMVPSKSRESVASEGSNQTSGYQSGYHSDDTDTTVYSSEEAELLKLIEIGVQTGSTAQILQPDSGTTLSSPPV
# T1 sequence (P12931 whole entry): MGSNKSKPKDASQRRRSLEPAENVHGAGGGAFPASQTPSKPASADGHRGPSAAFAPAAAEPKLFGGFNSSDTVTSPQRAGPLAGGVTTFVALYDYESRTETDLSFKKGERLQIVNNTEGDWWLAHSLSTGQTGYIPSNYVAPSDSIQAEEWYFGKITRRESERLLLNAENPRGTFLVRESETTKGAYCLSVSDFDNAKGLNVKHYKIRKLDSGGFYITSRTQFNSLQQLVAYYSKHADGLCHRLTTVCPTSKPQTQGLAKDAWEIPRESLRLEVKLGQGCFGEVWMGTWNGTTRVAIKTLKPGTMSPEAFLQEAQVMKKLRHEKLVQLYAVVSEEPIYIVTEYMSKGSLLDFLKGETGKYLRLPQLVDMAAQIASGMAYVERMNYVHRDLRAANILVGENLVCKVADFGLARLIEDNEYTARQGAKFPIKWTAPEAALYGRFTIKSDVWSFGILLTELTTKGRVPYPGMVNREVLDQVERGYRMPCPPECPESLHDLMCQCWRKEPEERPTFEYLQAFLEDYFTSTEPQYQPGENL
SMILES,Ki (human Src kinase),Ki (JAK-3),Ki (KDR)
CCOc1cccc(Nc2ncn(-c3ccccc3)n2)c1 [Compound I-45],< 500 nM,> 1000 nM,
CC(C)C(=O)N1CCCN(c2cc(-n3cnc(Nc4ccccc4)n3)ccn2)CC1 [Compound I-69],> 1000 nM,> 1000 nM,> 1000 nM
c1ccc(Nc2ncn(-c3ccnc(N4CCCCCCC4)c3)n2)cc1 [Compound I-52],< 500 nM,10 to 1000 nM,< 100 nM
CCCN(CCO)c1cc(-n2cnc(Nc3ccccc3)n2)ccn1 [Compound I-58],< 500 nM,10 to 1000 nM,< 100 nM
CN(Cc1cccnc1)c1cc(-n2cnc(Nc3ccccc3)n2)ccn1 [Compound I-57],500 to 1000 nM,10 to 1000 nM,< 100 nM
CN(C)CCCN(C)c1cc(-n2cnc(Nc3ccccc3)n2)ccn1 [Compound I-53],> 1000 nM,> 1000 nM,100 to 1000 nM
c1ccc(-n2cnc(Nc3ccc4c(c3)OCCO4)n2)cc1 [Compound I-44],500 to 1000 nM,> 1000 nM,
CN(Cc1ccccc1)c1cc(-n2cnc(Nc3ccccc3)n2)ccn1 [Compound I-55],500 to 1000 nM,10 to 1000 nM,100 to 1000 nM
CC(C)CC(=O)N1CCCN(c2cc(-n3cnc(Nc4ccccc4)n3)ccn2)CC1 [Compound I-70],> 1000 nM,> 1000 nM,> 1000 nM
COc1cc(Nc2ncn(-c3ccc(C#N)cc3)n2)cc(OC)c1OC [Compound I-43],< 500 nM,10 to 1000 nM,
O=c1[nH]c2ccccc2n1C1CCN(c2cc(-n3cnc(Nc4ccccc4)n3)ccn2)CC1 [Compound I-63],> 1000 nM,> 1000 nM,> 1000 nM
CC(C)Oc1cccc(Nc2ncn(-c3ccccc3)n2)c1 [Compound I-46],> 1000 nM,> 1000 nM,
CCOc1ccc(Nc2ncn(-c3ccccc3)n2)cc1 [Compound I-47],> 1000 nM,> 1000 nM,
COc1cc(Nc2ncn(-c3ccccc3)n2)cc(OC)c1OC [Compound I-42],< 500 nM,10 to 1000 nM,

# More lines, now with the values ahead:
Ki (human Src kinase),Ki (JAK-3),Ki (KDR),SMILES
> 1000 nM,10 to 1000 nM,100 to 1000 nM,COCC(=O)N1CCCN(c2cc(-n3cnc(Nc4ccccc4)n3)ccn2)CC1 [Compound I-71]
500 to 1000 nM,10 to 1000 nM,100 to 1000 nM,CC(=O)N1[C@H](C)CN(c2cc(-n3cnc(Nc4ccc(NC(=O)c5cccs5)cc4)n3)ccn2)C[C@@H]1C [Compound I-80]
< 500 nM,< 10 nM,< 100 nM,CC(=O)N1[C@H](C)CN(c2cc(-n3cnc(Nc4ccc(N)cc4)n3)ccn2)C[C@@H]1C [Compound I-82]
< 500 nM,10 to 1000 nM,< 100 nM,CCCNC(=O)Nc1ccc(Nc2ncn(-c3ccnc(N4C[C@@H](C)N(C(C)=O)[C@@H](C)C4)c3)n2)cc1 [Compound I-99]
< 500 nM,< 10 nM,< 100 nM,CC(=O)N1[C@H](C)CN(c2cc(-n3cnc(Nc4ccccc4)n3)ccn2)C[C@@H]1C [Compound I-74]
< 500 nM,10 to 1000 nM,100 to 1000 nM,"O=C(CC1CCCC1)Nc1cc(-n2cnc(Nc3ccccc3)n2)ccn1 [Compound I-94, 2-Cyclopentyl-N-[4-(3-phenylamino-[1,2,4]triazol-1-yl)-pyridin-2-yl]-acetamide]"
500 to 1000 nM,10 to 1000 nM,100 to 1000 nM,"CC(=O)N1[C@H](C)CN(c2cc(-n3cnc(Nc4ccc(N5CCOCC5)cc4)n3)ccn2)C[C@@H]1C [Compound I-85, 1-(2,6-Dimethyl-4-{4-[3-(4-morpholin-4-yl-phenylamino)-[1,2,4]triazol-1-yl]-pyridin-2-yl}-piperazin-1-yl)-ethanone]"
< 500 nM,10 to 1000 nM,< 100 nM,CCOC(=O)c1ccc(Nc2ncn(-c3ccnc(N4C[C@@H](C)N(C(C)=O)[C@@H](C)C4)c3)n2)cc1 [Compound I-75]
< 500 nM,< 10 nM,< 100 nM,c1ccc(Nc2ncn(-c3ccnc(N4CCCCCC4)c3)n2)cc1 [Compound I-73]
< 500 nM,10 to 1000 nM,100 to 1000 nM,c1ccc(-n2cnc(Nc3ccnc(N4CCOCC4)c3)n2)cc1 [Compound I-105]
< 500 nM,> 1000 nM,100 to 1000 nM,O=C(CCc1ccccc1)Nc1cc(-n2cnc(Nc3ccccc3)n2)ccn1 [Compound I-95]
500 to 1000 nM,10 to 1000 nM,100 to 1000 nM,N#CCC(=O)N1CCCN(c2cc(-n3cnc(Nc4ccccc4)n3)ccn2)CC1 [Compound I-72]
< 500 nM,10 to 1000 nM,< 100 nM,"CC(=O)N1[C@H](C)CN(c2cc(-n3cnc(Nc4ccc(NC(=O)c5ccco5)cc4)n3)ccn2)C[C@@H]1C [Compound I-81, Furan-2-carboxylic acid (4-{1-[2-(4-acetyl-3,5-dimethyl-piperazin-1-yl)-pyridin-4-yl]-1H-[1,2,4]triazol-3-ylamino}-phenyl)-amide]"
500 to 1000 nM,10 to 1000 nM,100 to 1000 nM,CC(=O)N1[C@H](C)CN(c2cc(-n3cnc(Nc4ccc(NC(=O)OC(C)C)cc4)n3)ccn2)C[C@@H]1C [Compound I-89]
< 500 nM,10 to 1000 nM,< 100 nM,"CC(=O)N1[C@H](C)CN(c2cc(-n3cnc(Nc4ccc(N5CCN(C(=O)OC(C)(C)C)CC5)cc4)n3)ccn2)C[C@@H]1C [Compound I-97, 4-(4-{1-[2-(4-Acetyl-3,5-dimethyl-piperazin-1-yl)-pyridin-4-yl]-1H-[1,2,4]triazol-3-ylamino}-phenyl)-piperazine-1-carboxylic acid tert-butyl ester]"
> 1000 nM,> 1000 nM,,CN1CCN(c2ccc(Nc3ncn(-c4ccccc4)n3)cn2)CC1 [Compound I-135]
